Source: patent publication US12679878B2, “CRF2 receptor agonists and their use in therapy” (SANOFI, priority 2020, dated 2026)
Values after ≈ are worked out from the molar mass of the structure shown. Like-named read-outs stand apart in the source and are kept apart here. Starred links: 1 amine or outer side, 2 acyl side, 3 side chain; linkers in the order of their positions; H or OH if unused. Non-standard residues stand in square brackets, D forms with d. Residues, ends and D or L forms follow the SMILES beside them. Groups on a side chain read outwards from the residue. *: point of attachment. C16 diacid = O=C(O)CCCCCCCCCCCCCCC(=O)*; γGlu = O=C(O)[C@H](CCC(=O)[*:2])N[*:1]; Palmitoyl = CCCCCCCCCCCCCCCC(=O)*; Aib = CC(C)(N)C(=O)O

Columns and labels:
CRF2R = target: T1, CRF2R (Homo sapiens, UniProt Q13324); test: EC50 [nM] CRF2R
T1 construct: expressed in transfected cells; host or cells: TeloHEAC
Text: Table printed on a drawing sheet, Fig. 3
Head of the field: EC50 [nM] CRF2R
The patent's description of the figure: FIG. 3: Representative sequences from peptides according to the invention with an optimized stability profile, wherein K[sema] stands for K[gGlu-C(O)(CH2)14CH3]
First copying reader's note: Second half (positions 13-38, C-term and activity) of the first table; the rows follow the same order, so the four rows of Peptide Seq. 1 are Patent Sequence N° 130, 171, 172 and 173.
Where the first naming reader finds the target: head: EC50 [nM] CRF2R

[1] = Buffer solubility by LC-UV, pH 7.4 phosphate and pH 4.5 acetate (Example 19.11); assay type: physicochemical; settings: target 10 mg/mL
Protocol: As for example 15 above, also the chemical stability of representative examples of these FA modified peptides has been assessed, using LC-UV instead of light scattering. Solubility and chemical stability were studied in 100 mM phosphate buffer (pH 7.4) and 100 mM acetate buffer (pH 4.5). Test compound powders were dissolved in both buffers at a target concentration of 10 mg/mL and incubated for 1 hour at room temperature. After centrifugation at 2500 rcf for 15 minutes, […] of supernatant was diluted with […] of the incubation buffer and analyzed by LC-UV (Acquity UPLC-DAD, Waters). Solubility was calculated by comparing the peak area of the test compound in the buffer sample with the peak area of the same compound dissolved at 0.5 mg/ml in water:acetonitrile 1:1, 0.1% formic acid.

[2] = In vitro plasma stability, human plasma (Example 19.11); assay type: in vitro ADME; set-up: dose or concentration left out as unconfirmed; settings: 37° C.
Protocol: (§1) In vitro plasma metabolic stability was studied in male Sprague Dawley rats and human. Test compound were incubated […] for 2 hours at 37° C. At each time point (0, 0.25, 1 and 2 h), samples were prepared for analysis by means of a single step protein precipitation technique by adding 150 μL of ethanol, 0.1% formic acid to 50 μL aliquots of plasma. Samples were mixed by vortex for homogeneity and then subjected to centrifugation at 14000 rpm for 15 min. The supernatant (100 μL) was collected, diluted with 100 μL of water, 0.1% formic acid and analyzed by LC-HRMS (TripleTOF 6600+, AB Sciex). For each test compound, the area ratios at each time point were compared to the 0 h area ratio and converted to a percentage remaining.

CRF1R receptor = target: T2, CRF1R receptor (Homo sapiens, UniProt P34998); test: cAMP activity at anti-target CRF1R, CHO-K1 cell line clone 2 (Example 19.10); assay type: cell-based
T2 construct: host or cells: CHO-K1 clone 2
T2 sequence (P34998 24-415): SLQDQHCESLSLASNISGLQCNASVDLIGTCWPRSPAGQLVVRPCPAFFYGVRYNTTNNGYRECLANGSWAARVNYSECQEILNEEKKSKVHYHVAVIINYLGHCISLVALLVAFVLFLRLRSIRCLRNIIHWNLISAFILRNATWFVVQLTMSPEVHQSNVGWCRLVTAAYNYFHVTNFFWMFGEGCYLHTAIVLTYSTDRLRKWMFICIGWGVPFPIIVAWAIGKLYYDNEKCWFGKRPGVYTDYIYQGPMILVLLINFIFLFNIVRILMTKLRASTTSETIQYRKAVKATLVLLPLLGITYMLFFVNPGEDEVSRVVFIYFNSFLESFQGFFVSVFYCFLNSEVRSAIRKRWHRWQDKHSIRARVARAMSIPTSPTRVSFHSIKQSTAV
Procedure, shortened: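 A CRF1R-overexpressing CHO-K1 line (clone 2) was grown in F12/10% FBS/G418 and frozen in aliquots before use. The cAMP assay followed the preceding procedure, with 100% activation defined by Sauvagine at 100 nM.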

[3] = In vitro plasma stability, rat plasma (Example 19.11); assay type: in vitro ADME, Sprague Dawley rats; set-up: remaining at 2 h: dose or concentration left out as unconfirmed; settings: male, Sprague Dawley, rat, plasma, 37° C.
Protocol: as §1

human CRF2α receptor = target: T3, human CRF2α receptor (Homo sapiens, UniProt Q13324); test: cAMP agonism at human CRF2α receptor in TeloHEAC cells, FA modified peptides (Example 19.9); assay type: cell-based; settings: 0% HSA, relative to urocortin 2
T3 construct: expressed in transfected cells; host or cells: TeloHEAC
T3 sequence (Q13324 1-411): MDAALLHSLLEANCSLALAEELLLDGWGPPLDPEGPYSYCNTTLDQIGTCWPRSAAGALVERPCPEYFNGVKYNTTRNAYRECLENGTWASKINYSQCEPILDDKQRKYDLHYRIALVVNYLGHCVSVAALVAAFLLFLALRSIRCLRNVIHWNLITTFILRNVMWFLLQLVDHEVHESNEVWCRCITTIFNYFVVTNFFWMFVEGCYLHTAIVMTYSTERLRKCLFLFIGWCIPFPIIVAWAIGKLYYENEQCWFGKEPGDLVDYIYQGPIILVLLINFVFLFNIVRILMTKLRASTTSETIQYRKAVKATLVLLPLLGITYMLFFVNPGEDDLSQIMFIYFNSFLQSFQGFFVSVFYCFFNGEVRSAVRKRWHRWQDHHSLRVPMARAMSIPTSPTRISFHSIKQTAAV
Procedure, shortened: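 Efficacy and EC50 are referenced to 100 nM urocortin 2 as 100%, with cAMP measured as the 665/620 nm HTRF ratio after 1 h at room temperature. Compounds (0.5 mM DMSO stock, 16 twofold dilutions) acted 30 min at 37 °C on CRF2α-expressing TeloHEAC cells, buffer containing IBMX and 0% or 0.2% HSA.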

CCCCCCCCCCCCCCCC(=O)N[C@@H](CCC(=O)NCCCC[C@H](NC(=O)[C@H](CC(C)C)NC(=O)CNC(=O)[C@@H](NC(=O)[C@@H]1CCCN1C(=O)[C@@H](NC(=O)[C@H](CC(=O)O)NC(=O)[C@H](CC(C)C)NC(=O)[C@H](CO)NC(=O)[C@H](CC(C)C)NC(=O)[C@@H](NC(=O)[C@@H](N)[C@@H](C)CC)C(C)C)C(C)C)[C@@H](C)CC)C(=O)N[C@@H](CCC(N)=O)C(=O)N[C@@H](CCCCN)C(=O)N[C@@H](CC(C)C)C(=O)N[C@@H](CC(C)C)C(=O)N[C@@H](CCCCN)C(=O)N[C@@H](CCC(N)=O)C(=O)N[C@@H](CCC(N)=O)C(=O)N[C@@H](CCCNC(=N)N)C(=O)N[C@@H](CCC(N)=O)C(=O)N[C@@H](CCCNC(=N)N)C(=O)N[C@@H](CCCCN)C(=O)N[C@@H](CCC(=O)O)C(=O)N[C@@H](CCCNC(=N)N)C(=O)N[C@@H](CCC(N)=O)C(=O)N[C@@H](CCC(N)=O)C(=O)N[C@@H](C)C(=O)N[C@@H](CCC(=O)O)C(=O)N[C@@H](CCCCN)C(=O)N[C@@H](CC(N)=O)C(=O)N[C@@H](C)C(=O)N[C@@H](CCCNC(=N)N)C(=O)N[C@H](C(=O)N[C@@H](CC(C)C)C(=O)N[C@@H](C)C(=O)N[C@@H](CCCNC(=N)N)C(=O)N[C@H](C(N)=O)C(C)C)[C@@H](C)CC)C(=O)O [SEQ ID NO: 6] (H-IVLSLDVPIGLK([γGlu-Palmitoyl])QKLLKQQRQRKERQQAEKNARILARV-NH2)
EC50 (CRF2R): 0.06 nM

CCCCCCCCCCCCCCCC(=O)N[C@@H](CCC(=O)NCCCC[C@H](NC(=O)[C@@H](NC(=O)[C@H](CCCCN)NC(=O)[C@@H](NC(=O)[C@@H]1CCCN1C(=O)[C@@H](NC(=O)[C@H](CC(=O)O)NC(=O)[C@H](CC(C)C)NC(=O)[C@H](CO)NC(=O)[C@H](CC(C)C)NC(=O)[C@@H](NC(=O)[C@@H](N)Cc1ccccc1)[C@@H](C)O)C(C)C)[C@@H](C)O)[C@@H](C)CC)C(=O)N[C@@H](CCC(N)=O)C(=O)N[C@@H](CCCCN)C(=O)N[C@@H](CC(C)C)C(=O)N[C@@H](CC(C)C)C(=O)N[C@@H](CCCCN)C(=O)N[C@@H](CCC(N)=O)C(=O)N[C@@H](CCC(=O)O)C(=O)N[C@@H](CCCCN)C(=O)N[C@@H](CCC(N)=O)C(=O)N[C@@H](CCCCN)C(=O)N[C@@H](CCCCN)C(=O)N[C@@H](CCC(N)=O)C(=O)N[C@@H](CCCNC(=N)N)C(=O)N[C@@H](CCC(N)=O)C(=O)N[C@@H](CCCCN)C(=O)N[C@@H](C)C(=O)N[C@@H](CCCCN)C(=O)N[C@H](C(=O)N[C@@H](C)C(=O)N[C@@H](C)C(=O)N[C@@H](CCC(N)=O)C(=O)N[C@H](C(=O)N[C@@H](CC(C)C)C(=O)N[C@@H](C)C(=O)N[C@@H](CCC(N)=O)C(=O)N[C@H](C(N)=O)C(C)C)[C@@H](C)CC)[C@@H](C)O)C(=O)O [SEQ ID NO: 8] (H-FTLSLDVPTKIK([γGlu-Palmitoyl])QKLLKQEKQKKQRQKAKTAAQILAQV-NH2)
EC50 (CRF2R): 0.18 nM

CCCCCCCCCCCCCCCC(=O)N[C@@H](CCC(=O)NCCCC[C@H](NC(=O)[C@@H](NC(=O)[C@H](CCCCN)NC(=O)[C@@H](NC(=O)[C@@H]1CCCN1C(=O)[C@@H](NC(=O)[C@H](CC(=O)O)NC(=O)[C@H](CC(C)C)NC(=O)[C@H](CO)NC(=O)[C@H](CC(C)C)NC(=O)[C@@H](NC(=O)[C@@H](N)Cc1ccccc1)[C@@H](C)O)C(C)C)[C@@H](C)O)[C@@H](C)CC)C(=O)N[C@@H](CCC(N)=O)C(=O)N[C@@H](CCCCN)C(=O)N[C@@H](CC(C)C)C(=O)N[C@@H](CC(C)C)C(=O)N[C@@H](CCCCN)C(=O)N[C@@H](CCC(N)=O)C(=O)N[C@@H](CCC(=O)O)C(=O)N[C@@H](CCCCN)C(=O)N[C@@H](CCC(N)=O)C(=O)N[C@@H](CCCCN)C(=O)N[C@@H](CCCCN)C(=O)N[C@@H](CCC(N)=O)C(=O)N[C@@H](CCCNC(=N)N)C(=O)N[C@@H](CCC(N)=O)C(=O)N[C@@H](CCCCN)C(=O)N[C@@H](C)C(=O)N[C@@H](CCCCN)C(=O)N[C@H](C(=O)N[C@@H](C)C(=O)N[C@@H](CCCCN)C(=O)N[C@@H](CCC(N)=O)C(=O)N[C@H](C(=O)N[C@@H](CC(C)C)C(=O)N[C@@H](CCC(=O)O)C(=O)N[C@@H](CCC(N)=O)C(=O)N[C@H](C(N)=O)C(C)C)[C@@H](C)CC)[C@@H](C)O)C(=O)O [SEQ ID NO: 9] (H-FTLSLDVPTKIK([γGlu-Palmitoyl])QKLLKQEKQKKQRQKAKTAKQILEQV-NH2)
EC50 (CRF2R): 0.08 nM

CC[C@H](C)[C@H](N)C(=O)N[C@H](C(=O)N[C@@H](CC(C)C)C(=O)N[C@@H](CO)C(=O)N[C@@H](CC(C)C)C(=O)N[C@@H](CC(=O)O)C(=O)N[C@@H](C(=O)N1CCC[C@H]1C(=O)N[C@H](C(=O)NCC(=O)N[C@@H](CC(C)C)C(=O)N[C@@H](CCCCNC(=O)CC[C@H](NC(=O)CCCCCCCCCCCCCCC(=O)O)C(=O)O)C(=O)N[C@@H](CCC(N)=O)C(=O)N[C@H](C(=O)N[C@@H](CC(C)C)C(=O)N[C@@H](CC(C)C)C(=O)N[C@@H](CCCCN)C(=O)N[C@@H](CCC(N)=O)C(=O)N[C@@H](CCC(=O)O)C(=O)N[C@@H](CCCNC(=N)N)C(=O)N[C@@H](CCC(N)=O)C(=O)N[C@@H](CCCCN)C(=O)N[C@@H](CCCCN)C(=O)NC(C)(C)C(=O)N[C@@H](CCCNC(=N)N)C(=O)N[C@@H](CCC(=O)O)C(=O)N[C@@H](CCC(N)=O)C(=O)N[C@@H](C)C(=O)N[C@@H](CCC(=O)O)C(=O)N[C@H](C(=O)N[C@@H](CC(N)=O)C(=O)N[C@@H](CCCCN)C(=O)N[C@@H](CCCNC(=N)N)C(=O)N[C@H](C(=O)N[C@@H](CC(C)C)C(=O)N[C@@H](CCC(=O)O)C(=O)N[C@@H](CCCNC(=N)N)C(=O)N[C@H](C(N)=O)C(C)C)[C@@H](C)CC)[C@@H](C)O)[C@@H](C)CC)[C@@H](C)CC)C(C)C)C(C)C [compound 193] (H-IVLSLD[dV]PIGLK([γGlu-C16 diacid])QILLKQERQKK[Aib]REQAETNKRILERV-NH2)
solubility at 1 h ([1]; pH 4.5, 100 mM acetate buffer): 8600 µg/mL (≈ 1770 µM)
solubility at 1 h ([1]; pH 7.4, 100 mM phosphate buffer): 100 µg/mL (≈ 20.6 µM)
remaining at 2 h [2]: 80%
EC50 (CRF1R receptor; 0% HSA, CRF1R CHO-K1 clone 2, read-out: EC50 [nM] 0% HSA): > 100 nM
Emax (CRF1R receptor; 100% = Sauvagine at 100 nM, CRF1R CHO-K1 clone 2): 8.77%
EC50 (CRF1R receptor; Table 20 side-to-side comparison, read-out: CRF1 EC50): > 100 nM
CRF1/CRF2 ratio (CRF1R receptor; ratio of CRF1 EC50 to CRF2 EC50): >500
remaining at 2 h [3]: 84%
EC50 (human CRF2α receptor): 0.82 nM
